From patent publication US20240174637A1, “DEGRADERS OF GRK2 AND USES THEREOF” (Sonata Therapeutics, Inc., priority 2021, published 2024)
Read-outs that look alike come from different tables or passages of the source.

Assays:
PAXF1657 KO Clone #4 = assay: 7-day cellular proliferation assay (CellTiter-Glo), PAXF1657 KO Clone #4; assay type: cell-based
How it was run: (§1)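 Read-out is CellTiter-Glo luminescence after 7 days of continuous exposure, with compound re-dosed in fresh medium at day 3. Cells were seeded at 500/well and treated across 30 μM-0.0002 μM (10 points, 0.3% DMSO); baseline viability plates were read at compound addition.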

GRK2 [1] = biological target: T1, GRK2 (Homo sapiens, UniProt P25098); assay: GRK2 Degradation Assay and Western Blot in PAXF1657 cells; assay type: cell-based; parameters: endogenous in cells; host or cells: PAXF1657
T1 sequence (P25098 1-689): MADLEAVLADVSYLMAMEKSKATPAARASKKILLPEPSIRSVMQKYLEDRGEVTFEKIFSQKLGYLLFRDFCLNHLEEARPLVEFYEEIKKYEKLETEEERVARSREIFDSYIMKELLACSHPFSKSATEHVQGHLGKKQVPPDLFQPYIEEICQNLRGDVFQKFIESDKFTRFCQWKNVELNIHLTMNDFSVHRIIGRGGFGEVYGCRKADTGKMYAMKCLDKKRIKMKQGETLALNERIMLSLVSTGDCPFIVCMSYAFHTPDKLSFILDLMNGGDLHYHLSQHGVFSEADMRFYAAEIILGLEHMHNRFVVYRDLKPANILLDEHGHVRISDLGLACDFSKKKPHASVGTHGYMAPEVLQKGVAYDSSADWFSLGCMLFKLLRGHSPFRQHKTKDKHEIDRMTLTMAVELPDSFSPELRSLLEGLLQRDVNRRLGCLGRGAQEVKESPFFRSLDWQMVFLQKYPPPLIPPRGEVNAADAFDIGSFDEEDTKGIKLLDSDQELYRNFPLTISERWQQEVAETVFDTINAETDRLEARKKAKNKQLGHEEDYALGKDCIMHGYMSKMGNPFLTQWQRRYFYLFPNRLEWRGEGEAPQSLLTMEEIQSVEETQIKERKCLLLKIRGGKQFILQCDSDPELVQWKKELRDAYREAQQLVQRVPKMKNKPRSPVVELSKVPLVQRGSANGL
How it was run: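 PAXF1657 cells grown to 70% confluency, then treated with compounds at 0–10 μM for 6 to 24 h at 37 °C. Lysates in PBS with 1% NP40 run on SDS-PAGE. GRK2 protein detected by western blot with β-actin as loading reference, using ECL chemiluminescence.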

PAXF1657 EV = assay: 7-day cellular proliferation assay (CellTiter-Glo), PAXF1657 EV; assay type: cell-based
How it was run: as §1

GRK2 [2] = biological target: T1, GRK2; assay: GRK2 Inhibition Assay (TR-FRET, Example 1); assay type: biochemical
How it was run: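 GRK2 (1 nM) pre-incubated 30 min RT with compounds in HEPES/MgCl2/DTT/Tween-20/EGTA buffer, then reacted 90 min RT with 7 μM ATP and 50 nM ULight-TopoIIα substrate. Stopped with EDTA plus Eu anti-TopoIIα antibody; TR-FRET read after 60 min.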

[3] = proliferation, read-out: GeoMean IC50 (uM) PAXF1657 KO Clone #4
[4] = Conc 0.3 uM, read-out: Degradation Assay - 3 point: Degradation (%)
[5] = Conc 1 uM, read-out: Degradation Assay - 3 point: Degradation (%)
[6] = Conc 3 uM, read-out: Degradation Assay - 3 point: Degradation (%)
[7] = proliferation, read-out: GeoMean IC50 (UM) PAXF1657 EV
[8] = Table 4, Example 1 assay, read-out: Enzymatic GRK2 IC50: Av IC50 GRK2
[9] = 168 h, 7-day, read-out: 7-day proliferation assay: IC50 GeoMean (uM) [Cell Line: PAXF1657 KO Clone #4]
[10] = 0.3 uM, PAXF1657 EV, 24 hrs, read-out: % GRK2 degradation at 0.3 uM in PAXF1657 EV (24 hrs)
[11] = 1 uM, PAXF1657 EV, 24 hrs, read-out: % GRK2 degradation at 1 uM in PAXF1657 EV (24 hrs)
[12] = 3 uM, PAXF1657 EV, 24 hrs, read-out: % GRK2 degradation at 3 uM in PAXF1657 EV (24 hrs)
[13] = 168 h, 7-day, read-out: 7-day proliferation assay: IC50 GeoMean (uM) [Cell Line: PAXF1657 EV]
[14] = TR-FRET, 7 μM ATP, read-out: Enzymatic GRK2 Assay: IC50 (nM) (Example 1)

| Compound | IC50 (PAXF1657 KO Clone #4; [3]) | inhibition at 0.3 µM (GRK2 [1]; [4]) | inhibition at 1 µM (GRK2 [1]; [5]) | inhibition at 3 µM (GRK2 [1]; [6]) | DC50 (GRK2 [1]; PAXF1657, 24 h, read-out: Degradation Assay - Full Dose Response: IC50 (uM) [cell line: PAXF1657, time point: 24 h]) | IC50 (PAXF1657 EV; [7]) | IC50 (GRK2 [2]; [8]) | IC50 (PAXF1657 KO Clone #4; [9]) | inhibition at 0.3 µM (GRK2 [1]; [10]) | inhibition at 1 µM (GRK2 [1]; [11]) | inhibition at 3 µM (GRK2 [1]; [12]) | IC50 (PAXF1657 EV; [13]) | IC50 (GRK2 [2]; [14]) | % GRK2 degradation at 0.03 uM in PAXF1657 EV (24 hrs) (GRK2 [1]; 0.03 uM, PAXF1657 EV, 24 hrs) | % GRK2 degradation at 0.1 uM in PAXF1657 EV (24 hrs) (GRK2 [1]; 0.1 uM, PAXF1657 EV, 24 hrs) | % GRK2 degradation at 10 uM in PAXF1657 EV (24 hrs) (GRK2 [1]; 10 uM, PAXF1657 EV, 24 hrs) | GRK2 degradation, dose dependence (FIGS. 1A-1D) (GRK2 [1]; 24-hour treatment in PAXF1657 cells) |
| --- | --- | --- | --- | --- | --- | --- | --- | --- | --- | --- | --- | --- | --- | --- | --- | --- | --- |
| C[C@@H](NC(=O)c1cccc(NCc2nnc(-c3ccncn3)n2C)c1)c1cccc(OCCCCCCOCCOCCNc2ccc3c(c2)CN(C2CCC(=O)NC2=O)C3=O)c1 (stereo partly drawn) [Compound D141, N-((1R)-1-(3-(6-(2-(2-(2-(2,6-dioxopiperidin-3-yl)-1-oxoisoindolin-5-ylamino)ethoxy)ethoxy)hexyloxy)phenyl)ethyl)-3-((4-methyl-5-(pyrimidin-4-yl)-4H-1,2,4-triazol-3-yl)methylamino)benzamide] | 1.66 µM | 89% | 88% | 67% | 8.71 µM | 0.17 µM | 19.5 nM | – | – | – | – | – | – | – | – | – | – |
| Cc1ncsc1-c1ccc(CNC(=O)[C@@H]2C[C@@H](O)CN2C(=O)[C@@H](NC(=O)CCCCCOCCOCCOCCCCCCOc2cccc([C@@H](C)NC(=O)c3cccc(NCc4nnc(-c5ccncn5)n4C)c3)c2)C(C)(C)C)cc1 [Compound D79, (2S,4R)-1-((S)-2-(tert-butyl)-22-(3-((R)-1-(3-(((4-methyl-5-(pyrimidin-4-yl)-4H-1,2,4-triazol-3-yl)methyl)amino)benzamido)ethyl)phenoxy)-4-oxo-10,13,16-trioxa-3-azadocosan-1-oyl)-4-hydroxy-N-(4-(4-methylthiazol-5-yl)benzyl)pyrrolidine-2-carboxamide] | – | – | – | – | – | – | – | > 10 µM | 52% | 54% | 8% | < 1 µM | < 100 nM | – | – | – | – |
| C[C@@H](NC(=O)c1cccc(NCc2nnc(-c3ccncn3)n2C)c1)c1cccc(OCCCCCCOCCOCCOCCCCCC(=O)N2CCN(c3ccc4c(c3)CN(C3CCC(=O)NC3=O)C4=O)CC2)c1 (stereo partly drawn) [Compound D191, N-((1R)-1-(3-((6-(2-(2-((6-(4-(2-(2,6-dioxopiperidin-3-yl)-1-oxoisoindolin-5-yl)piperazin-1-yl)-6-oxohexyl)oxy)ethoxy)ethoxy)hexyl)oxy)phenyl)ethyl)-3-(((4-methyl-5-(pyrimidin-4-yl)-4H-1,2,4-triazol-3-yl)methyl)amino)benzamide] | > 30 µM | 36.7% | 78.1% | 86% | – | 0.32 µM | 24.9 nM | – | – | – | – | – | – | – | – | – | – |
| Cc1ncsc1-c1ccc(CNC(=O)[C@@H]2C[C@@H](O)CN2C(=O)[C@@H](NC(=O)CCCCc2cn(CCCCCOc3cccc(CNC(=O)c4cccc(NCc5nnc(-c6ccncn6)n5C)c4)c3)nn2)C(C)(C)C)cc1 [Compound D80] | – | – | – | – | – | – | – | > 10 µM | 6% | 0% | 23% | > 10 µM | < 100 nM | – | – | – | – |
| C[C@@H](NC(=O)c1cccc(NCc2nnc(-c3ccncn3)n2C)c1)c1cccc(OCCCCCOCCCOCC(=O)N2CCN(c3cc4c(cc3F)C(=O)N(C3CCC(=O)NC3=O)C4=O)CC2)c1 (stereo partly drawn) [Compound D180, N-((1R)-1-(3-((5-(3-(2-(4-(2-(2,6-dioxopiperidin-3-yl)-6-fluoro-1,3-dioxoisoindolin-5-yl)piperazin-1-yl)-2-oxoethoxy)propoxy)pentyl)oxy)phenyl)ethyl)-3-(((4-methyl-5-(pyrimidin-4-yl)-4H-1,2,4-triazol-3-yl)methyl)amino)benzamide] | > 30 µM | 43% | 74% | 85% | – | 0.82 µM | 7.31 nM | – | – | – | – | – | – | – | – | – | – |
| C[C@@H](NC(=O)c1cccc(NCc2nnc(-c3ccncn3)n2C)c1)c1cccc(C(=O)N2CC(N3CCN(c4ccc5c(c4)CN(C4CCC(=O)NC4=O)C5=O)CC3)C2)c1 (some centres unmarked) [Compound D172] | > 30 µM | -7.47% | -8.22% | -15.9% | – | 14.1 µM | 104 nM | – | – | – | – | – | – | – | – | – | – |
| Cc1ncsc1-c1ccc(CNC(=O)[C@@H]2C[C@@H](O)CN2C(=O)[C@@H](NC(=O)CCCCCOCCOCCOCCCCCCOc2cccc([C@H](C)NC(=O)c3cccc(NCc4nnc(-c5ccncn5)n4C)c3)c2)C(C)(C)C)cc1 [Compound D153] | 6.82 µM | 10% | 12% | 18% | – | 0.34 µM | 125 nM | – | – | – | – | – | – | – | – | – | – |
| CC(NC(=O)c1cccc(NCc2nnc(-c3ccncn3)n2C)c1)c1cccc(OCCCCCCOCCOCCOCCCCCC(=O)Nc2cccc3c2CN(C2CCC(=O)NC2=O)C3=O)c1 (centres unmarked) [Compound D67, N-(1-(3-((6-(2-(2-((6-((2-(2,6-dioxopiperidin-3-yl)-1-oxoisoindolin-4-yl)amino)-6-oxohexyl)oxy)ethoxy)ethoxy)hexyl)oxy)phenyl)ethyl)-3-(((4-methyl-5-(pyrimidin-4-yl)-4H-1,2,4-triazol-3-yl)methyl)amino)benzamide] | – | – | – | – | – | – | – | > 10 µM | 74% | 87% | 90% | 1 to 10 µM | < 100 nM | 38% | 60% | 83% | Dose dependent |
| C[C@@H](NC(=O)c1cccc(NCc2nnc(-c3ccncn3)n2C)c1)c1cccc(OCCCCCCOCCOCCOCCCCCC(=O)Nc2cccc3c2CN(C2CCC(=O)NC2=O)C3=O)c1 (stereo partly drawn) [Compound D57, N-((1R)-1-(3-((6-(2-(2-((6-((2-(2,6-dioxopiperidin-3-yl)-1-oxoisoindolin-4-yl)amino)-6-oxohexyl)oxy)ethoxy)ethoxy)hexyl)oxy)phenyl)ethyl)-3-(((4-methyl-5-(pyrimidin-4-yl)-4H-1,2,4-triazol-3-yl)methyl)amino)benzamide] | – | – | – | – | – | – | – | > 10 µM | 70% | 82% | 85% | > 10 µM | < 100 nM | – | – | – | – |
| Cn1c(CNc2cccc(C(=O)NCc3cccc(OCCCCCCn4cc(CCCC(=O)Nc5cccc6c5CN(C5CCC(=O)NC5=O)C6=O)nn4)c3)c2)nnc1-c1ccncn1 (centres unmarked) [Compound D63] | – | – | – | – | – | – | – | > 10 µM | 34% | 55% | 68% | > 10 µM | < 100 nM | – | – | – | – |
| C[C@H](NC(=O)c1cccc(NCc2nnc(-c3ccncn3)n2C)c1)c1cccc(OCCCCCOCCCOCC(=O)Nc2cccc3c2CN(C2CCC(=O)NC2=O)C3=O)c1 (stereo partly drawn) [Compound D185, N-((1S)-1-(3-((5-(3-(2-((2-(2,6-dioxopiperidin-3-yl)-1-oxoisoindolin-4-yl)amino)-2-oxoethoxy)propoxy)pentyl)oxy)phenyl)ethyl)-3-(((4-methyl-5-(pyrimidin-4-yl)-4H-1,2,4-triazol-3-yl)methyl)amino)benzamide] | > 30 µM | 1.79% | 17.5% | 19.2% | – | > 30 µM | 211 nM | – | – | – | – | – | – | – | – | – | – |
